In ChEMBL document CHEMBL6114980, “Single or double lipid-modified ultra-short antimicrobial peptides for treating infections caused by resistant bacteria” (Eur J Med Chem, 2025):
In brackets after ≈: the same amount, converted by molar mass. Activity calls are given as the source filed them. The rule behind the calls is not given here. Peptide text beside a SMILES is read from it. * marks the point of attachment. Lauroyl = CCCCCCCCCCCC(=O)*; Octanoyl = CCCCCCCC(=O)*

Tests used:
Staphylococcus aureus [1] = experiment: Antibacterial activity against methicillin resistant Staphylococcus aureus infected in male BALB/c mouse model of skin wound infection assessed as appearance of intact structure of stratum corneum at 2 mg/kg, ip measured after 10 days post infection; assay type: functional, organism-based; settings: time 10.0 day
Staphylococcus aureus [2] = experiment: Antibacterial activity against Staphylococcus aureus ATCC 25923 assessed as reduction in bacterial growth incubated for 18 to 24 hrs by broth microdilution method; assay type: functional; settings: time 18-24 hrs
[3] = Acute toxicity in male BALB/c mouse assessed lethal dose administered as ip dose measured for 7 days; assay type: organism-based; settings: in vivo, time 7 day
Staphylococcus aureus [4] = experiment: Antibacterial activity against Staphylococcus aureus assessed as reduction in survival bacterial growth in presence of <=2 ug/ml chymotrypsin measured after1 hr by absorbance based analysis; assay type: functional, organism-based; settings: time 1.0 hrs
Staphylococcus aureus [5] = experiment: Synergistic antibacterial activity against Staphylococcus aureus 25923 assessed as fractional inhibitory in presence of polymyxin B by checker board assay; assay type: functional
Staphylococcus aureus [6] = experiment: Antibacterial activity against methicillin resistant Staphylococcus aureus infected in male BALB/c mouse model of skin wound infection assessed as healthy development of hair follicles at 2 mg/kg, ip measured after 10 days post infection; assay type: functional, organism-based; settings: time 10.0 day
Staphylococcus aureus [7] = experiment: Additive antibacterial activity against Staphylococcus aureus 113 assessed as fractional inhibitory in presence of streptomycin by checker board assay; assay type: functional
Acinetobacter baumannii [8] = experiment: Antibacterial activity against Acinetobacter baumannii ATCC 19606 assessed as reduction in bacterial growth incubated for 18 to 24 hrs by broth microdilution method; assay type: functional; settings: time 18-24 hrs
Pseudomonas aeruginosa [9] = experiment: Antibacterial activity against Pseudomonas aeruginosa 124 assessed as reduction in bacterial growth incubated for 18 to 24 hrs by broth microdilution method; assay type: functional; settings: time 18-24 hrs
Staphylococcus aureus [10] = experiment: Additive antibacterial activity against Staphylococcus aureus 113 assessed as fractional inhibitory in presence of cephalothin by checker board assay; assay type: functional
Escherichia coli [11] = experiment: Antibacterial activity against Escherichia coli assessed as reduction in survival bacterial growth in presence of FeCl3 measured after 18 to 24 hrs (reference value: 8 microM); assay type: functional; settings: time 18-24 hrs
Escherichia coli [12] = experiment: Antibacterial activity against Escherichia coli 850 assessed as reduction in bacterial growth incubated for 18 to 24 hrs by broth microdilution method; assay type: functional; settings: time 18-24 hrs
Staphylococcus aureus [13] = experiment: Induction of morphological changes in Staphylococcus aureus assessed as cell foaming at 2 times MIC measured after 30 mins by SEM analysis; assay type: functional, organism-based
Staphylococcus aureus [14] = experiment: Bactericidal activity against Staphylococcus aureus 25923 assessed as eradication of bacteria at 2 times MIC measured within 1 hr by time-kill assay; assay type: functional, organism-based
Escherichia coli [15] = experiment: Antibacterial activity against Escherichia coli 780 assessed as reduction in bacterial growth incubated for 18 to 24 hrs by broth microdilution method; assay type: functional; settings: time 18-24 hrs
Cell membrane [16] = experiment: Induction of inner membrane permeabilization in Escherichia coli at 2 times MIC measured for 135 mins by absorbance based analysis
Staphylococcus aureus [17] = experiment: Antibacterial activity against methicillin resistant Staphylococcus aureus infected in male BALB/c mouse model of skin wound infection assessed as reduction in wound area at 2 mg/kg, ip measured after 10 days post infection relative to control; assay type: functional; design: scale not given: the % may be the effect or the level left; settings: time 10 day
Staphylococcus aureus [18] = experiment: Induction of cell membrane disruption in Staphylococcus aureus assessed as PI uptake at 2 to 4 times MIC measured after 120 mins by PI staining based flow cytometry analysis (Rvb =<10 %); assay type: functional; settings: 2 h
Staphylococcus aureus [19] = experiment: Synergistic antibacterial activity against methicillin-resistant Staphylococcus aureus measured after 18 hrs in presence of streptomycin by absorbance based analysis; assay type: functional, organism-based
Klebsiella pneumoniae [20] = experiment: Induction of morphological changes in Klebsiella pneumoniae assessed as cell adhesion at 2 times MIC measured after 120 mins by SEM analysis; assay type: functional, organism-based
Staphylococcus aureus [21] = experiment: Induction of morphological changes in Staphylococcus aureus assessed as cell aggregation adhesion at 2 times MIC measured after 120 mins by SEM analysis; assay type: functional, organism-based
Staphylococcus aureus [22] = experiment: Antibacterial activity against Staphylococcus aureus 113 assessed as reduction in bacterial growth incubated for 18 to 24 hrs by broth microdilution method; assay type: functional; settings: time 18-24 hrs
Escherichia coli [23] = experiment: Antibacterial activity against Escherichia coli ATCC 25922 assessed as reduction in bacterial growth incubated for 18 to 24 hrs by broth microdilution method; assay type: functional; settings: time 18-24 hrs
Staphylococcus aureus [24] = experiment: Bactericidal activity against Staphylococcus aureus assessed as bacterial mortality rate at 2 times MIC preincubated with LTA for 1 hr followed by bacteria addition for 24 hrs by spectrophotometric analysis relative to control; assay type: functional
Staphylococcus aureus [25] = experiment: Synergistic antibacterial activity against Staphylococcus aureus 25923 assessed as fractional inhibitory in presence of streptomycin by checker board assay; assay type: functional
[26] = Stability in mouse serum assessed as retention time measured after 1 hr by RP-HPLC analysis; assay type: ADME, cell-free
Escherichia coli [27] = experiment: Bactericidal activity against Escherichia coli 25922 assessed as eradication of bacteria at 2 times MIC measured within 1 hr by time-kill assay; assay type: functional, organism-based
Pseudomonas aeruginosa [28] = experiment: Antibacterial activity against Pseudomonas aeruginosa 6434N assessed as reduction in bacterial growth incubated for 18 to 24 hrs by broth microdilution method; assay type: functional; settings: time 18-24 hrs
Staphylococcus aureus [29] = experiment: Synergistic antibacterial activity against methicillin-resistant Staphylococcus aureus measured after 18 hrs in presence of cephalothin by absorbance based analysis; assay type: functional, organism-based
Staphylococcus aureus [30] = experiment: Antibacterial activity against Staphylococcus aureus 794 assessed as reduction in bacterial growth incubated for 18 to 24 hrs by broth microdilution method; assay type: functional; settings: time 18-24 hrs
Staphylococcus aureus [31] = experiment: Synergistic antibacterial activity against Staphylococcus aureus 25923 measured after 18 hrs in presence of streptomycin by absorbance based analysis; assay type: functional, organism-based
Acinetobacter baumannii [32] = experiment: Antibacterial activity against Acinetobacter baumannii 92359 assessed as reduction in bacterial growth incubated for 18 to 24 hrs by broth microdilution method; assay type: functional; settings: time 18-24 hrs
Pseudomonas aeruginosa [33] = experiment: Antibacterial activity against Pseudomonas aeruginosa ATCC 27853 assessed as reduction in bacterial growth incubated for 18 to 24 hrs by broth microdilution method; assay type: functional; settings: time 18-24 hrs
Klebsiella pneumoniae [34] = experiment: Antibacterial activity against Klebsiella pneumoniae ATCC 700603 infected in male BALB/c mouse lung infection model assessed as reduction in bacterial load at 5 mg/kg, ip measured after 6 to 36 hrs (reference value: 1.77 10^6CFU/mg); assay type: functional; settings: time 6-36 hrs
Klebsiella pneumoniae [35] = experiment: Antibacterial activity against Klebsiella pneumoniae ATCC 700603 assessed as reduction in bacterial growth incubated for 18 to 24 hrs by broth microdilution method; assay type: functional; settings: time 18-24 hrs
Staphylococcus aureus [36] = experiment: Antibacterial activity against Staphylococcus aureus 125 assessed as reduction in bacterial growth incubated for 18 to 24 hrs by broth microdilution method; assay type: functional; settings: time 18-24 hrs
Klebsiella pneumoniae [37] = experiment: Induction of morphological changes in Klebsiella pneumoniae assessed as cell aggregation at 2 times MIC measured after 30 mins by SEM analysis; assay type: functional, organism-based
Cell membrane [38] = experiment: Induction of outer membrane permeabilization in Escherichia coli assessed as increase in fluorescence intensity measured for 10 mins by fluorescence based NPN uptake assay
Escherichia coli [39] = experiment: Antibacterial activity against Escherichia coli assessed as reduction in survival bacterial growth by measuring fold change in presence of ZnCl2 measured after 18 to 24 hrs; assay type: functional; settings: time 18-24 hrs
Staphylococcus aureus [40] = experiment: Antibacterial activity against methicillin-resistant Staphylococcus aureus ATCC 33591 assessed as reduction in bacterial growth incubated for 18 to 24 hrs by broth microdilution method; assay type: functional; settings: time 18-24 hrs
Acinetobacter baumannii [41] = experiment: Antibacterial activity against Acinetobacter baumannii 5444 assessed as reduction in bacterial growth incubated for 18 to 24 hrs by broth microdilution method; assay type: functional; settings: time 18-24 hrs
Cell membrane [42] = experiment: Induction of inner membrane permeabilization in Escherichia coli at 4 times MIC measured for 135 mins by absorbance based analysis

CCCCCCCCCCCC(=O)N[C@@H](CCCCN)C(=O)N[C@@H](CCCCN)C(=O)N[C@@H](Cc1c[nH]c2ccccc12)C(=O)N[C@@H](Cc1c[nH]c2ccccc12)C(N)=O (Lauroyl-KKWW-NH2)
Activity (Staphylococcus aureus [1]): Active | MIC (Staphylococcus aureus [2]): 4 µM (≈ 3.31 µg/mL) | LD50 at 168 h [3]: 114 mg/kg | Activity (Staphylococcus aureus [4]): Active | fractional inhibitory concentration index (FICI) (Staphylococcus aureus [5]): 0.5 | Activity (Staphylococcus aureus [6]): Active | fractional inhibitory concentration index (FICI) (Staphylococcus aureus [7]): 0.562 | MIC (Acinetobacter baumannii [8]): 16 µM (≈ 13.2 µg/mL) | MIC (Pseudomonas aeruginosa [9]): 8 µM (≈ 6.62 µg/mL) | fractional inhibitory concentration index (FICI) (Staphylococcus aureus [10]): 0.562 | MIC (Escherichia coli [11]): 8 µM | MIC (Escherichia coli [12]): 8 µM (≈ 6.62 µg/mL) | Activity (Staphylococcus aureus [13]): Active | Activity (Staphylococcus aureus [14]): Active | MIC (Escherichia coli [15]): 8 µM (≈ 6.62 µg/mL) | Activity (Cell membrane [16]): Active; Compound Showed Higher Permeability Than Positive Control 0.1% Tritonx-100 | Activity (Staphylococcus aureus [17]): <20% | Activity (Staphylococcus aureus [18]): 100% | Activity (Staphylococcus aureus [19]): Active | Activity (Klebsiella pneumoniae [20]): Active; Compound Showed More Pronounced Effect Compared To 30 Mins Incubation Time | Activity (Staphylococcus aureus [21]): Active | MIC (Staphylococcus aureus [22]): 4 µM (≈ 3.31 µg/mL) | MIC (Escherichia coli [23]): 8 µM (≈ 6.62 µg/mL) | Activity (Staphylococcus aureus [24]): >50% | fractional inhibitory concentration index (FICI) (Staphylococcus aureus [25]): 0.187 | Retention_time [26]: 19.718 min | Activity (Escherichia coli [27]): Active | MIC (Pseudomonas aeruginosa [28]): 8 µM (≈ 6.62 µg/mL) | Activity (Staphylococcus aureus [29]): Active | MIC (Staphylococcus aureus [30]): 4 µM (≈ 3.31 µg/mL) | Activity (Staphylococcus aureus [31]): Active | MIC (Acinetobacter baumannii [32]): 16 µM (≈ 13.2 µg/mL) | MIC (Pseudomonas aeruginosa [33]): 8 µM (≈ 6.62 µg/mL) | Activity (Klebsiella pneumoniae [34]): 2.4 10^4CFU/mg | MIC (Klebsiella pneumoniae [35]): 16 µM (≈ 13.2 µg/mL) | MIC (Staphylococcus aureus [36]): 4 µM (≈ 3.31 µg/mL) | Activity (Klebsiella pneumoniae [37]): Active | Activity (Cell membrane [38]): Dose-dependent-effect | fold change (FC) (Escherichia coli [39]): 2 | MIC (Staphylococcus aureus [40]): 4 µM (≈ 3.31 µg/mL) | MIC (Acinetobacter baumannii [41]): 16 µM (≈ 13.2 µg/mL) | Activity (Cell membrane [42]): Active; Compound Showed Stronger Effect Than Positive Control 0.1% Tritonx-100

CCCCCCCC(=O)NCCCC[C@H](NC(=O)CCCCCCC)C(=O)N[C@@H](CCCCN)C(=O)N[C@@H](CCCCN)C(=O)N[C@@H](Cc1c[nH]c2ccccc12)C(=O)N[C@@H](Cc1c[nH]c2ccccc12)C(N)=O (Octanoyl-K(Octanoyl)KKWW-NH2)
Activity (Staphylococcus aureus [1]): Active | MIC (Staphylococcus aureus [2]): 8 µM (≈ 8.21 µg/mL) | LD50 at 168 h [3]: 113 mg/kg | Activity (Staphylococcus aureus [4]): Active | fractional inhibitory concentration index (FICI) (Staphylococcus aureus [5]): 0.5 | Activity (Staphylococcus aureus [6]): Active | fractional inhibitory concentration index (FICI) (Staphylococcus aureus [7]): 0.75 | MIC (Acinetobacter baumannii [8]): 16 µM (≈ 16.4 µg/mL) | MIC (Pseudomonas aeruginosa [9]): 8 µM (≈ 8.21 µg/mL) | fractional inhibitory concentration index (FICI) (Staphylococcus aureus [10]): 0.562 | MIC (Escherichia coli [11]): 8 µM | MIC (Escherichia coli [12]): 8 µM (≈ 8.21 µg/mL) | Activity (Staphylococcus aureus [13]): Active | Activity (Staphylococcus aureus [14]): Active | MIC (Escherichia coli [15]): 8 µM (≈ 8.21 µg/mL) | Activity (Cell membrane [16]): Active | Activity (Staphylococcus aureus [17]): <20% | Activity (Staphylococcus aureus [18]): 100% | Activity (Staphylococcus aureus [19]): Active | Activity (Klebsiella pneumoniae [20]): Active; Compound Showed More Pronounced Effect Compared To 30 Mins Incubation Time | Activity (Staphylococcus aureus [21]): Active | MIC (Staphylococcus aureus [22]): 8 µM (≈ 8.21 µg/mL) | MIC (Escherichia coli [23]): 8 µM (≈ 8.21 µg/mL) | Activity (Staphylococcus aureus [24]): >50% | fractional inhibitory concentration index (FICI) (Staphylococcus aureus [25]): 0.312 | Retention_time [26]: 19.975 min | Activity (Escherichia coli [27]): Active | MIC (Pseudomonas aeruginosa [28]): 16 µM (≈ 16.4 µg/mL) | Activity (Staphylococcus aureus [29]): Active | MIC (Staphylococcus aureus [30]): 16 µM (≈ 16.4 µg/mL) | Activity (Staphylococcus aureus [31]): Active | MIC (Acinetobacter baumannii [32]): 8 µM (≈ 8.21 µg/mL) | MIC (Pseudomonas aeruginosa [33]): 16 µM (≈ 16.4 µg/mL) | Activity (Klebsiella pneumoniae [34]): 1.66 10^4CFU/mg | MIC (Klebsiella pneumoniae [35]): 16 µM (≈ 16.4 µg/mL) | MIC (Staphylococcus aureus [36]): 8 µM (≈ 8.21 µg/mL) | Activity (Klebsiella pneumoniae [37]): Active | Activity (Cell membrane [38]): Dose-dependent-effect | fold change (FC) (Escherichia coli [39]): 2 | MIC (Staphylococcus aureus [40]): 8 µM (≈ 8.21 µg/mL) | MIC (Acinetobacter baumannii [41]): 16 µM (≈ 16.4 µg/mL) | Activity (Cell membrane [42]): Active; Compound Showed Stronger Effect Than Positive Control 0.1% Tritonx-100
